# Measurements published in patent US9771358B2, “Dihydropyrimidine compounds and their application in pharmaceuticals” (SUNSHINE LAKE PHARMA CO., LTD., priority 2014, dated 2017).
# Where two headings read alike, the source gives them in different places.
# Key:
# [1] = Stability in liver microsome, mouse; assay type: in vitro ADME; details: liver microsomes; mouse liver microsome 0.1 mg/mL, compound 1 μM, NADPH 2 mM
# Method: (§1) Then two parallel samples were prepared. After a 10 minutes preincubation at 37° C., 15 μL of NADPH solution (8 mM) was added according to the point-in-time. The final concentration of the text compound was 1 μM, the concentration of liver microsome was 0.1 mg/mL, the final concentration of NADPH was 2 mM. The incubations were last for 0, 15, 30, 60 min respectively, and then 150 μL of acetonitrile (include interior label) was added to the mixture system. After dilution with acetonitrile, the samples were centrifuged for 5 minutes in 4000 rpm. The supernatant liquid was collected for LC-MS/MS analysis.
# [2] = Stability in liver microsome, human; assay type: in vitro ADME; details: liver microsomes; human liver microsome 0.1 mg/mL, compound 1 μM, NADPH 2 mM
# Method: as §1
# [3] = Stability in liver microsome, dog; assay type: in vitro ADME; details: liver microsomes; dog liver microsome 0.1 mg/mL, compound 1 μM, NADPH 2 mM
# Method: as §1
# HBV = assay: In-vitro anti-HBV activity in stable HBV-producing cell line (HepG2.2.15), HBV DNA by qPCR; assay type: cell-based; details: Hepatitis B virus, 168 h; HepG2.2.15 cells, HBV DNA in culture fluid, day 7, top concentration 16.4 μM
# Method: HBV DNA contents in cell culture fluid were detected by the qPCR-based assay and 50% effective concentration (EC50) values of the compounds against HBV were calculated. Specific procedures are as follows:
# HepG2.2.15 cells were seeded into each well of 96-well plates, 40,000 cells per well. Cells were treated with cell culture medium containing compounds with different concentrations for 24 hours after cell seeding. The final concentration of each compound was 16.4 μM in each well and each compound was diluted to desired concentration using 3-fold gradient dilution protocol, 9 diluted points in duplicate. The culture mediums containing the compounds were refreshed on day 4 post cell seeding. Culture media were collected from the HepG2.2.15 plates on day 7 post cell seeding followed by HBV DNA extraction.
# HBV DNA extraction: The HBV DNA extraction was performed using QIAamp 96 DNA Blood Kit (QIAGEN 51161).
# PCR for quantification: PCR mix was prepared according to PCR system. PCR mix was dispensed to 96-well optical reaction plates (special for quantification). The standard diluted proportionally was added. Then the sample was added; The plates were sealed with optical adhesive film; PCR system was performed according to programs.
# Percentage of HBV inhibition of DNA replication by compound was calculated using the following equation: % Inh.=[1-HBV DNA quantity of sample/HBV DNA quantity of DMSO control]×100.
# Calculating EC50 value of compounds to HBV replication: the EC50 values were calculated based on “four-parameter logistic equation” and using GraphPad Prism 5 analysis software.
# [4] = Stability in liver microsome, monkey; assay type: in vitro ADME; details: liver microsomes; monkey liver microsome 0.1 mg/mL, compound 1 μM, NADPH 2 mM
# Method: as §1
# [5] = PK of test compounds in beagle; assay type: in vivo, beagle dog; details: for Cmax / Tmax / clearance / half-life / AUC(0-inf) / AUC(0-t) / Vd: dog, plasma; for AUC(0-inf): AUC in 0 hour to infinite time; for Vd: read-out: Vss; for F: absolute bioavailability
# Method: The test compounds were administrated to beagle dog by gavage in dose of 2.5 mg/kg or 5 mg/kg, or by intravenous injection in dose of 1 mg/kg or 2 mg/kg. Blood sample was collected at 0.083, 0.25, 0.5, 1, 2, 4, 6, 8 and 24 hours from vein after administration into anticoagulation tubes with EDTA-K2. The test compounds were extracted from plasma samples and chromatographed on a tandem mass spectrometer. Quantitation was performed using multiple reaction monitoring (MRM). Pharmacokinetic parameters were calculated using WinNonlin 6.3 software with non compartment model.
# [6] = iv, 1 mg/kg, iv, 1 mg/kg, AUC in 0-24 hours, read-out: AUClast
SMILES,CLint scaled at 1 μM [1] [L/h/kg],half-life at 1 μM [1] [h],CLint scaled at 1 μM [2] [L/h/kg],half-life at 1 μM [2] [h],CLint scaled at 1 μM [3] [L/h/kg],half-life at 1 μM [3] [h],EC50 (HBV) [µM],CLint scaled at 1 μM [4] [L/h/kg],half-life at 1 μM [4] [h],"Cmax ([5]; iv, 1 mg/kg) [µg/mL]","Tmax ([5]; iv, 1 mg/kg) [h]","clearance ([5]; iv, 1 mg/kg) [L/h/kg]","half-life ([5]; iv, 1 mg/kg) [h]","AUC(0-inf) ([5]; iv, 1 mg/kg) [µg·h/mL]","AUC(0-t) [5, 6] [µg·h/mL]","Vd ([5]; iv, 1 mg/kg) [L/kg]",also measured
"CCOC(=O)C1=C(CN2CCO[C@H](CCC(=O)O)C2)NC(c2nccs2)=N[C@H]1c1ccc(F)cc1Br [Example 2, 3-((R)-4-(((R)-6-(2-Bromo-4-fluorophenyl)-5-(ethoxycarbonyl)-2-(thiazol-2-yl)-3,6-dihydropyrimidin-4-yl)methyl)morpholin-2-yl)propanoic acid]",23.1,0.236,1.05,1.66,0.859,4.02,0.035,6.45,0.314,2.05,0.083,0.116,5.71,8.7,8.27,0.756,"Cmax ([5]; po, 5 mg/kg): 6.33 µg/mL; Tmax ([5]; po, 5 mg/kg): 1.33 h; half-life ([5]; po, 5 mg/kg): 5.1 h; AUC(0-inf) ([5]; po, 5 mg/kg): 49.6 µg·h/mL; AUC(0-t) ([5]; po, 5 mg/kg, po, 5 mg/kg, AUC in 0-24 hours, read-out: AUClast): 47.9 µg·h/mL; F ([5]; po, 5 mg/kg): 114.1%"
"COC(=O)C1=C(CN2CCO[C@H](CCC(=O)O)C2)NC(c2nccs2)=N[C@H]1c1ccc(Cl)cc1Cl [Example 13, 3-((R)-4-(((R)-6-(2,4-dichlorophenyl)-5-(methoxycarbonyl)-2-(thiazol-2-yl)-3,6-dihydropyrimidin-4-yl)methyl)morpholin-2-yl)propanoic acid]",8.1,0.673,1.03,1.68,0.331,10.5,0.028,2.16,0.94,2.92,0.083,0.0894,5.08,11.6,11.2,0.526,"Cmax ([5]; po, 2.5 mg/kg): 6.41 µg/mL; Tmax ([5]; po, 2.5 mg/kg): 0.667 h; half-life ([5]; po, 2.5 mg/kg): 5.29 h; AUC(0-inf) ([5]; po, 2.5 mg/kg): 33.3 µg·h/mL; AUC(0-t) ([5]; po, 2.5 mg/kg, po, 2.5 mg/kg value multiplied by 2, read-out: AUClast ×2 (calculated by dosage)): 64.4 µg·h/mL; AUC(0-t) ([5]; po, 2.5 mg/kg, po, 2.5 mg/kg, AUC in 0-24 hours, read-out: AUClast): 32.2 µg·h/mL; F ([5]; po, 2.5 mg/kg): 105.6%"
"CCOC(=O)C1=C(CN2CCO[C@H](C)[C@H]2CCC(=O)O)NC(c2nccs2)=N[C@H]1c1ccc(F)cc1Br [Example 5, 3-((2R,3R)-4-(((R)-6-(2-Bromo-4-fluorophenyl)-5-(ethoxycarbonyl)-2-(thiazol-2-yl)-3,6-dihydropyrimidin-4-yl)methyl)-2-methylmorpholin-3-yl)propanoic acid]",,,,,,,0.306,,,,,,,,,,
"CCOC(=O)C1=C(CN2CCO[C@H](CCCCC(=O)O)C2)NC(c2nccs2)=N[C@H]1c1ccc(F)cc1Br [Example 7, 5-((R)-4-(((R)-6-(2-Bromo-4-fluorophenyl)-5-(ethoxycarbonyl)-2-(thiazol-2-yl)-3,6-dihydropyrimidin-4-yl)methyl)morpholin-2-yl)pentanoic acid]",,,,,,,0.072,,,,,,,,,,
